Assay results reported in ChEMBL document CHEMBL5050862, “Compounds for inhibiting ly6k and methods of using same” (2021).
Values belong to the molecule of their own block, whether it stands above or below them. Activity calls are given as the source filed them. No cut-off for these calls is given here.

How the values were obtained:
[1] = tested on: MDA-MB-231; experiment: Antiproliferative activity against human MDA-MB-231 cells transfected with LY6K-ShRNA2 at 100 uM assessed as induction of cells death and measured after 24 hrs by Cell Titer Blue assay relative to control; type: functional, cell-based
[2] = tested on: MDA-MB-231; experiment: Down-regulation of PD-L1 expression in human MDA-MB-231 cells at 2 uM measured after 30 mins by Western blot analysis; type: functional, cell-based
[3] = tested on: 4T1; experiment: Antitumor activity against mouse 4T1 cells allografted in syngenetic BALB/c mouse assessed as tumor growth inhibition at 5 mg/kg, IT(Intratumoral) measured at day 11; type: functional, organism-based; conditions: time 11.0 day
[4] = biological target: Mothers against decapentaplegic homolog 2/homolog 3 (Homo sapiens) (UniProt P84022+Q15796); experiment: Inhibition of TGF-beta1-induced Smad2/3 phopshorylation in human MDA-MB-231 cells at 2 uM measured after 30 mins by Western blot analysis; type: cell-based
Sequence of Mothers against decapentaplegic homolog 2/homolog 3 (Homo sapiens) (P84022 whole entry, looked up): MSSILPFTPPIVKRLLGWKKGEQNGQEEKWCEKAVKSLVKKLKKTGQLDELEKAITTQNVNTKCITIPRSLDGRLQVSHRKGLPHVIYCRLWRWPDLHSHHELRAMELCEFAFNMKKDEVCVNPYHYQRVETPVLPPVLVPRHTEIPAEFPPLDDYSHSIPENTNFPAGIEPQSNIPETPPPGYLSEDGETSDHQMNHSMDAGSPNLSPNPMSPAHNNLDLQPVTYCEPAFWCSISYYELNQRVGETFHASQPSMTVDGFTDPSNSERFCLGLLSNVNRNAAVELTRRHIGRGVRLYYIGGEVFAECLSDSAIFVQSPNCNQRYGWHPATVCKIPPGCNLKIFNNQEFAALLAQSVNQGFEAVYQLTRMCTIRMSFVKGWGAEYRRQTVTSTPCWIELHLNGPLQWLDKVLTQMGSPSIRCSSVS
Sequence of Mothers against decapentaplegic homolog 2/homolog 3 (Homo sapiens) (Q15796 whole entry, looked up): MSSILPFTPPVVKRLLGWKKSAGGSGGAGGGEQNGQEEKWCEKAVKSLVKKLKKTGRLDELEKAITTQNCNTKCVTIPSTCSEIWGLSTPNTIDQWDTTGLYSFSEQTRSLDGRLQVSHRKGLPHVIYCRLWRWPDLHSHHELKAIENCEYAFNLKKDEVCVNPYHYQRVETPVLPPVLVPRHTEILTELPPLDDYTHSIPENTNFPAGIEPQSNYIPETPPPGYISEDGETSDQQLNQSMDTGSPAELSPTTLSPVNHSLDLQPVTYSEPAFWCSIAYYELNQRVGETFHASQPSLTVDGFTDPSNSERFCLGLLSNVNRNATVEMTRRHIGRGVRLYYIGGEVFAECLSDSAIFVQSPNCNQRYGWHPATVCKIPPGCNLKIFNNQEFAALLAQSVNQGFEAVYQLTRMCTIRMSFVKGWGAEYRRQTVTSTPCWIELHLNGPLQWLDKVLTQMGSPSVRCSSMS

[5] = biological target: T1, Signal transducer and activator of transcription 1-alpha/beta (Homo sapiens) (UniProt P42224); experiment: Inhibition of IFN-gamma-induced Stat1 phopshorylation in human MDA-MB-231 cells at 2 uM measured after 30 mins by Western blot analysis; type: cell-based
T1 sequence (whole entry): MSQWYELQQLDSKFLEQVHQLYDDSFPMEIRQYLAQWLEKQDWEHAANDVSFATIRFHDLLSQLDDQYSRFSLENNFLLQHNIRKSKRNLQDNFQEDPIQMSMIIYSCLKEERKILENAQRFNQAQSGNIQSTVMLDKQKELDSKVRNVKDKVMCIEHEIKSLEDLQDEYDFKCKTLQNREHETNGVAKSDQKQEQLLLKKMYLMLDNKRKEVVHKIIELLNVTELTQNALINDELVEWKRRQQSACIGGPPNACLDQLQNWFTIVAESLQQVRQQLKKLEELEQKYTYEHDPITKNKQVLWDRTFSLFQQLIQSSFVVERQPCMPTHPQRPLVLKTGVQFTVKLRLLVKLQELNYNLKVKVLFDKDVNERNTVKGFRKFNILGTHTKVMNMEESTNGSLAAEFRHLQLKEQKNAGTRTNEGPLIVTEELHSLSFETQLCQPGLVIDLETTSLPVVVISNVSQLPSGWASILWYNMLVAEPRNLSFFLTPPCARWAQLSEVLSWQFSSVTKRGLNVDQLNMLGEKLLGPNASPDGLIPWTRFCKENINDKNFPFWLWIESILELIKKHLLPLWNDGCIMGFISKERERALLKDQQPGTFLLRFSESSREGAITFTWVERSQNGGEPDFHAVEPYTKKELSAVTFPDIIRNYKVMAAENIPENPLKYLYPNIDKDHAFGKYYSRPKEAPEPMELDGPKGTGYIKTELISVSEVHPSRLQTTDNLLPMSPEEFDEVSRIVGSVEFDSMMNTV

[6] = tested on: MDA-MB-231; experiment: Antiproliferative activity against human MDA-MB-231 cells at 100 uM assessed as induction of cells death and measured after 24 hrs by Cell Titer Blue assay relative to control; type: functional, cell-based
[7] = tested on: MDA-MB-231; experiment: Antiproliferative activity against human MDA-MB-231 cells after 24 hrs by Cell Titer Blue assay; type: functional, cell-based; conditions: MDA-MB-231, 24 h
[8] = tested on: 4T1; experiment: Induction of apoptosis in mouse 4T1 cells at 0.1 to 5 uM assessed as activation of caspase-7 measured after 16 hrs by Western blot analysis; type: functional, cell-based; conditions: dose 0.1-5 µM
[9] = tested on: 4T1; experiment: Effect on total Ly6K levels in mouse 4T1 cells at 0.1 to 5 […] measured by Western blotting analysis; type: functional, cell-based; conditions: dose 0.1-5 mM
[10] = tested on: 4T1; experiment: Down regulation of RhoA in mouse 4T1 cells at 0.1 to 5 uM measured after 16 hrs by Western blot analysis; type: functional, cell-based; conditions: dose 0.1-5 µM
[11] = tested on: Hs-578T; experiment: Antiproliferative activity against human Hs-578T cells after 24 hrs by Cell Titer Blue assay; type: functional, cell-based
[12] = tested on: 4T1; experiment: Antitumor activity against mouse 4T1 cells xenografted mouse assessed as decrease in myeloid-derived suppressor cells (MDSCs) in peripheral blood at 50 mg/kg, iv; type: functional; parameters: scale not given: the % may be the effect or the level left
[13] = tested on: MDA-MB-231; experiment: Antiproliferative activity against human MDA-MB-231 cells at 2 uM assessed as induction of cells death and measured after 24 hrs by Cell Titer Blue assay relative to control; type: functional, cell-based
[14] = tested on: 4T1; experiment: Induction of apoptosis in mouse 4T1 cells at 0.1 to 5 uM assessed as activation of caspase-3 measured after 16 hrs by Western blot analysis; type: functional, cell-based; conditions: dose 0.1-5 µM
[15] = tested on: BT-549; experiment: Antiproliferative activity against human BT-549 cells after 24 hrs by Cell Titer Blue assay; type: functional, cell-based; conditions: BT-549, 24 h
[16] = tested on: MDA-MB-231; experiment: Antiproliferative activity against human MDA-MB-231 cells transfected with LY6K-ShRNA2 at 2 uM assessed as induction of cells death and measured after 24 hrs by Cell Titer Blue assay relative to control; type: functional, cell-based
[17] = tested on: OVCAR-8; experiment: Antiproliferative activity against human OVCAR-8 cells after 24 hrs by Cell Titer Blue assay; type: functional, cell-based; conditions: OVCAR-8, 24 h
[18] = tested on: E0771; experiment: Antitumor immunity in C57BL/6 mouse xenografted with mouse EO771 cells assessed as reduction in tumor growth at 10 mg/kg, ip administered every 3rd day; type: functional, organism-based; conditions: time 3.0 day
[19] = tested on: 4T1; experiment: Antitumor activity against mouse 4T1 cells allografted in syngenetic BALB/c mouse assessed as tumor growth inhibition at 5 mg/kg, IT(Intratumoral) measured at day 3; type: functional, organism-based; conditions: time 3.0 day
[20] = tested on: 4T1; experiment: Induction of autophagy in mouse 4T1 cells at 0.1 to 5 uM assessed as activation of LC3B measured after 16 hrs by Western blot analysis; type: functional, cell-based; conditions: dose 0.1-5 µM
[21] = tested on: 4T1; experiment: Induction of apoptosis in mouse 4T1 cells at 0.1 to 5 uM assessed as increase in PARP cleavage measured after 16 hrs by Western blot analysis; type: functional, cell-based; conditions: dose 0.1-5 µM
[22] = tested on: 4T1; experiment: Antitumor activity against mouse 4T1 cells xenografted mouse assessed as decrease in Cd11b and Gr-1-dual positive […] in peripheral blood at 50 mg/kg, iv; type: functional, organism-based

Activity [4]: inactive
Activity [5]: inactive
SMILES: Oc1ccc(Cc2ccc(Cl)cc2)c(O)c1
Activity [1]: Active
Activity [2]: inactive
Activity [3]: Active
Activity [6]: Active

IC50 [7]: 5.68 µM
Activity [4]: Active
IC50 [15]: 7.65 µM
IC50 [17]: 4.17 µM
Activity [5]: Active
SMILES: CCS(=O)(=O)Nc1ccc(Nc2c3ccccc3nc3ccccc23)c(OC)c1
Activity [8]: Active
Activity [2]: Active
Activity [9]: Active
Activity [10]: Active
IC50 [11]: 7.31 µM
Activity [12]: 90%
Activity [13]: Active
Activity [14]: Active
Activity [16]: inactive
Activity [18]: Active
Activity [19]: Active
Activity [20]: Active
Activity [21]: Active
Activity [22]: Active
